The text below walks through data of patent publication US9505739B2, “Spiropyrrolidine beta-secretase inhibitors for the treatment of alzheimer's disease” (Merck Sharp & Dohme Corp., priority 2009, dated 2016).

This assay has as its target BACE 1 (Homo sapiens (Human), UniProt P56817). Nature of the assay: ECL assay: homogeneous end point electrochemiluminescence assay of beta-secretase inhibition with biotinylated BACE substrate. It is filed as biochemical. As to conditions: soluble human BACE 1, pH 6.5, rt. On the procedure: Enzyme inhibition is determined as follows.
ECL Assay: A homogeneous end point electrochemiluminescence (ECL) assay is performed using a biotinylated BACE substrate. The Km of the substrate is approximated at 50 μM. A typical reaction contains approximately 0.6 nM enzyme, 0.25 μM of the substrate, and buffer (50 mM Pipes, pH 6.5, 0.1 mg/ml BSA, 0.2% CHAPS, 15 mM EDTA and 1 mM deferoxamine) in a total reaction volume of 100 μl. The reaction proceeds for 1-2 hrs and is then stopped by the addition of 150 μL of a quench cocktail solution (25 μl M Tris-HCl, pH 8.0, 50 μl INC buffer (2% BSA, 0.2% Tween-20 and 0.05% sodium azide diluted in Phosphate buffered saline (PBS) plus 75 μL PBS), containing Streptavidin coated magnetic beads and ruthenylated antibody which specifically recognizes the C-terminal residue of the product. The samples are subjected to M-384 (Igen Inc., Gaithersburg, Md.) analysis. Under these conditions, less than 10% of substrate is processed by BACE 1. The enzyme used in these studies is soluble (transmembrane domain and cytoplasmic extension excluded) human protein produced in a baculovirus expression system. To measure the inhibitory potency for compounds, 10 concentrations of inhibitors are prepared starting from 200 μM with three fold series dilution. Solutions of the inhibitor in DMSO are included in the reaction mixture (final DMSO concentration is 10%). […]

Sequence of BACE 1 (P56817 46-457): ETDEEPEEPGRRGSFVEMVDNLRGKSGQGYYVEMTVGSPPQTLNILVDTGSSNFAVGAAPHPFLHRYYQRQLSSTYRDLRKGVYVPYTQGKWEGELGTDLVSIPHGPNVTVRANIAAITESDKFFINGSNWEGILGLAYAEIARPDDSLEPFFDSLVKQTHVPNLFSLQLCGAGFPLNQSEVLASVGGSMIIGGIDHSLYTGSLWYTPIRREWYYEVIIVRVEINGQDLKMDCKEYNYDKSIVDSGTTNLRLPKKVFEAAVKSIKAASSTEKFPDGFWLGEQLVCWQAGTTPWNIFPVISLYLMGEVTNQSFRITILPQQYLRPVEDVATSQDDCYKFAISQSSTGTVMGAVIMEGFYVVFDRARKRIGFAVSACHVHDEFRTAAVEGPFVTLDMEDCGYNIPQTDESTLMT

Broadly, the IC50 is the concentration that inhibits the measured activity by half. A higher IC50 goes with a need for much substance. `Cc1cccc(C2CC(c3ccccc3)CCN2C(=O)[C@@H]2CNC[C@]23CCCc2nc(Cl)ccc23)c1` (stereo partly drawn) [Example 100, [(3R,4S)-2′-chloro-7′,8′-dihydro-6′H-spiro [pyrrolidine-3,5′-quinolin]-4-yl][2-(3-methylphenyl)-4-phenylpiperidin-1-yl] methanone]: the IC50 was found to be 450 nM.
